This is an account of results in paper PMC9503212, “A High-Affinity ^64Cu-Labeled Ligand for PET Imaging of Hepsin: Design, Synthesis, and Characterization” (Pharmaceuticals, 2022).

In assay [1] the test system is hepsin. The following applies: cited from earlier work.
The target of assay [2] is T1, matriptase (Homo sapiens, UniProt Q9Y5Y6).
T1 sequence (Q9Y5Y6 1-855): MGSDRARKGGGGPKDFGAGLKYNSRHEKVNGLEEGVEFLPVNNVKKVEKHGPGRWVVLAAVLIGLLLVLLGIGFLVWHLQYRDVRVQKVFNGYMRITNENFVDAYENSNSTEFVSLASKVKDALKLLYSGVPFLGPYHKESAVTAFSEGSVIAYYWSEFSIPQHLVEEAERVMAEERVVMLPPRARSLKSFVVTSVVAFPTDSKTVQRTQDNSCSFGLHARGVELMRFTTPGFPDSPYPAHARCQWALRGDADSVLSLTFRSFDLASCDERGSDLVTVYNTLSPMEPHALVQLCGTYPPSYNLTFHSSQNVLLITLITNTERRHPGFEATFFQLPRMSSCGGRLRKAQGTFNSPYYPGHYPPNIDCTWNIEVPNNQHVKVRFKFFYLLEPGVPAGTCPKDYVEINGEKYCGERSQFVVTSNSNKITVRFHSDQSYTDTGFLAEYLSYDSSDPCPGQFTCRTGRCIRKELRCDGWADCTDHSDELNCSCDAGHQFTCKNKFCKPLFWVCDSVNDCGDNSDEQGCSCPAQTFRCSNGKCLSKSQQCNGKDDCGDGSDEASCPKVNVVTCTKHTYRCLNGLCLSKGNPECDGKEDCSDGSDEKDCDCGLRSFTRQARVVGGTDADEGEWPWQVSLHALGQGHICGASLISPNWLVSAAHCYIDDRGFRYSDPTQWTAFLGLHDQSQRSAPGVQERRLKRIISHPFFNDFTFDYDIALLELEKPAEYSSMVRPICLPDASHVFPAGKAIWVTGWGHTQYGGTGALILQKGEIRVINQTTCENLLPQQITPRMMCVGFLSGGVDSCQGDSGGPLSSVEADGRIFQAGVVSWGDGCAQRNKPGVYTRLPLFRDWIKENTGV
As to the kind of experiment: In vitro binding assay (fluorogenic BOC–QAR–AMC substrate), matriptase. Type of assay: biochemical. The following applies: 0.3 nM enzyme, 150 μM substrate, Ki by Cheng and Prusoff from IC50, three determinations. The method, then: (§1) Ligands (0.03 nM–30 µM) were diluted in DMSO (2% final concentration) and mixed with either activated hepsin or matriptase in 96-well plates. The final assay concentration for both hepsin and matriptase in TNC buffer was 0.3 nM. After an incubation period of 30 min at 37 °C, BOC–QAR–AMC substrate (R&D Systems) was added to hepsin and matriptase assay mixtures. The final substrate concentration was 150 μM in a final reaction volume of 100 μL.
(§2) Changes in fluorescence (excitation at 380 nm and emission at 460 nm) were measured at room temperature over 2 h in a BioTek Synergy two-plate reader (Agilent Technologies). Using the GraphPad Prism version 6.02 software (San Diego, CA, USA), a non-linear curve fit was performed to determine the inhibitor IC50s from a plot of the mean reaction velocity versus the inhibitor concentration. The IC50 values represent the average of three experimental determinations (Figure S1). Ki values were calculated using the Cheng and Prusoff equation (Ki = IC50/(1 + [S]/Km)).

Assay [3] concerns the target T2, Recombinant hepsin (Homo sapiens, UniProt P05981).
T2 construct: purchased R&D Systems
As to the kind of experiment: In vitro binding assay (fluorogenic BOC–QAR–AMC substrate), hepsin. The class given is biochemical. The following applies: for Ki: 0.3 nM enzyme, 150 μM substrate, Ki by Cheng and Prusoff from IC50, three determinations; for Matriptase/ Hepsin (hepsin selectivity, ratio of Ki values): ratio of Ki values for matriptase and hepsin. The method, then: Recombinant hepsin (R&D Systems, Minneapolis, MN, USA) was diluted 5.5-fold in TNC buffer (25 mM Tris-HCl, 150 mM NaCl, 5 mM CaCl2, 0.01% Triton X-100, pH 8) and incubated at 37 °C. After 24 h, hepsin was diluted in glycerol to 50%. The stock solution (1.2 μM) was stored at −81 °C and diluted in TNC buffer before use.
as §1, §2

T2 sequence (P05981 163-417 limits assumed): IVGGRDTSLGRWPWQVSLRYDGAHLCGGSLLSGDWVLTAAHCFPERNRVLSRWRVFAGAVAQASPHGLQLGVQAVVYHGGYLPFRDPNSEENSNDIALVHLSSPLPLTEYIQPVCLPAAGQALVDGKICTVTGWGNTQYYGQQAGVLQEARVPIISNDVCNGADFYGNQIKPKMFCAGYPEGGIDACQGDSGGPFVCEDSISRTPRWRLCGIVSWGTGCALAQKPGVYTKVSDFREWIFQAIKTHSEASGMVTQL
T2 sequence (P05981 1-162 partner limits assumed): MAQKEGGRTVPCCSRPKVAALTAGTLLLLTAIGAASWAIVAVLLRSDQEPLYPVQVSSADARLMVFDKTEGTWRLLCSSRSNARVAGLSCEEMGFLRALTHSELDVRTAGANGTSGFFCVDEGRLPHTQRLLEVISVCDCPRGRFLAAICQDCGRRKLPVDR

For orientation: Ki means the dissociation constant of the complex between target and ligand, obtained from inhibition or displacement. Regarding `CC(=O)N[C@@H](CC(C)C)C(=O)NC(CCCNC(=N)N)C(=O)c1nccs1` (some centres unmarked) [Ac–Leu–Arg–kt, reference compound], the “hepsin selectivity (ratio of Ki values for matriptase and hepsin), previous reported value” in assay [1] is 14.9. Further, the inhibition constant (Ki) in assay [1] (read-out: Ki hepsin, previous reported value) is 22.4 ± 0.5 nM; in assay [2], 56.5 ± 2.7 nM; in assay [3], 7.8 ± 2.8 nM. For the same compound, in assay [3], the “Matriptase/ Hepsin (hepsin selectivity, ratio of Ki values)” value stood at 7.2.

In the case of `CC(C)C[C@H](NC(=O)CCc1cn(CCOCCOCCF)nn1)C(=O)NC(CCCNC(=N)N)C(=O)c1nccs1` (stereo partly drawn) [Ligand 1A, (2S)-2-(3-(1-(2-(2-(2-Fluoroethoxy)ethoxy)ethyl)-1H-1,2,3-triazol-4-yl)propanamido)-N-(5-guanidino-1-oxo-1-(thiazol-2-yl)pentan-2-yl)-4-methylpentanamide], the inhibition constant (Ki) in assay [2] was found to be 54.5 ± 4.9 nM; in assay [3], 0.9 ± 0.1 nM. Besides, the “Matriptase/ Hepsin (hepsin selectivity, ratio of Ki values)” value in assay [3] turned out to be 60.6.

For `CC(C)C[C@H](NC(=O)CCc1cn(CCOCCOCCF)nn1)C(=O)NC(CCCNC(=N)N)C(=O)c1nccs1` (stereo partly drawn) [Ligand 1B, (2S)-2-(3-(1-(2-(2-(2-Fluoroethoxy)ethoxy)ethyl)-1H-1,2,3-triazol-4-yl)propanamido)-N-(5-guanidino-1-oxo-1-(thiazol-2-yl)pentan-2-yl)-4-methylpentanamide], the Ki in assay [2] was 20 ± 0.6 nM. In assay [3], the inhibition constant Ki was 0.5 ± 0.1 nM and the “Matriptase/ Hepsin (hepsin selectivity, ratio of Ki values)” value is 40.0.

As to “^natCu-DOTA-conjugated 1-amino-N-(1-((5-guanidino-1-oxo-1-(thiazol-2-yl)pentan-2-yl)amino)-4-methyl-1-oxopentan-2-yl)-3,6,9,12-tetraoxapentadecan-15-amide [Ligand 3A]”, in assay [2], the Ki worked out at 249 ± 12.3 nM. Besides, in assay [3], the inhibition constant Ki stood at 15 ± 0.6 nM and the “Matriptase/ Hepsin (hepsin selectivity, ratio of Ki values)” value is listed as 16.6.

For the compound “^natCu-DOTA-conjugated 1-amino-N-(1-((5-guanidino-1-oxo-1-(thiazol-2-yl)pentan-2-yl)amino)-4-methyl-1-oxopentan-2-yl)-3,6,9,12-tetraoxapentadecan-15-amide [Ligand 3B]”, the Ki was 120 ± 3.5 nM in assay [2] and 5.1 ± 0.3 nM in assay [3]. Moreover, the “Matriptase/ Hepsin (hepsin selectivity, ratio of Ki values)” value in assay [3] stood at 23.5.

“^natGa-DOTA-conjugated 1-amino-N-(1-((5-guanidino-1-oxo-1-(thiazol-2-yl)pentan-2-yl)amino)-4-methyl-1-oxopentan-2-yl)-3,6,9,12-tetraoxapentadecan-15-amide [Ligand 2A]”: the results for the inhibition constant Ki in assay [2] and in assay [3] were 166 ± 8.2 nM and 14.3 ± 1.2 nM, respectively. Further, the “Matriptase/ Hepsin (hepsin selectivity, ratio of Ki values)” value in assay [3] turned out to be 11.6.

On to “^natGa-DOTA-conjugated 1-amino-N-(1-((5-guanidino-1-oxo-1-(thiazol-2-yl)pentan-2-yl)amino)-4-methyl-1-oxopentan-2-yl)-3,6,9,12-tetraoxapentadecan-15-amide [Ligand 2B]”, for which the Ki in assay [2] was 68.2 ± 2.4 nM. Also, in assay [3], the inhibition constant (Ki) turned out to be 5.7 ± 0.2 nM and the “Matriptase/ Hepsin (hepsin selectivity, ratio of Ki values)” value is 12.0.
